Assay results from patent publication US20230081720A1, “MCL-1 INHIBITOR ANTIBODY-DRUG CONJUGATES AND METHODS OF USE” (NOVARTIS AG, priority 2019, published 2023).
Like-named read-outs stand apart in the source and are kept apart here.

Legend:
Mcl-1 protein = Mcl-1 protein (Homo sapiens, UniProt Q07820); assay: Inhibition of Mcl-1 by fluorescence polarization (FP); type: binding; conditions: fluorescein-labelled ligand 1 nM, Mcl-1 protein 5 nM
Method: The relative binding potency of each compound was determined via Fluorescence Polarization (FP).
An 11-point serial dilution of each compound was prepared in DMSO and 2 PI transferred into flat bottomed, low binding, 384-well plate (final DMSO concentration 5%). 38 μl of buffer (10 mM 4-(2-hydroxyethyl)-1-piperazineethanesulfonic acid [HEPES], 150 mM NaCl, 0.05% Tween 20, pH 7.4), containing the fluorescein-labelled ligand (final concentration 1 nM) and Mcl-1 protein (final concentration 5 nM) was then added.

EOL-1 = type: cell-based
Method: (§1) Cell lines were cultured in media that is optimal for their growth at 5% CO2, 37° C. in a tissue culture incubator. Prior to seeding for the proliferation assay, the cells were split at least 2 days before the assay to ensure optimal growth density. […] Cell viability and cell density were determined using a cell counter (Vi-Cell XR Cell Viability Analyzer, Beckman Coulter). […] Cells were seeded at a density of 1,000 cells per well in 45 μL of standard growth media. Plates were incubated at 5% CO2, 37° C. overnight in a tissue culture incubator. […] Each drug concentration was tested in quadruplets. […] Plates were incubated at room temperature for 10 minutes to stabilize luminescent signals prior to reading using a luminescence reader (EnVision Multilabel Plate Reader, PerkinElmer). To evaluate the effect of the drug treatments, luminescent counts from wells containing untreated cells (100% viability) were used to normalize treated samples.

MONO-MAC-1 = type: cell-based; conditions: CD74 ADC with the named linker-payload, 5 days
Method: as §1

NOMO-1 = type: cell-based
Method: as §1

soluble human CD74 = biological target: T1, soluble human CD74 (human, UniProt P04233-2 73-232, limits assumed); assay: SPR, Biacore 8K; IgG captured by anti-IgG Fc, soluble CD74 as analyte; 1:1 model, apparent kinetics
T1 construct: CD74' flowed over as analyte; also called human CD74 protein
T1 sequence (looked up): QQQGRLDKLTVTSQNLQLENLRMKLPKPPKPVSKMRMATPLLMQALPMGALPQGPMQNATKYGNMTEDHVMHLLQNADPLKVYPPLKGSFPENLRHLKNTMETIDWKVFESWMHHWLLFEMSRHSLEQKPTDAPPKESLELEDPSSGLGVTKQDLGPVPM
From the text: Double reference subtraction was completed to generate the final data.

soluble cyno CD74 (cyno) = assay: as above
soluble cyno CD74 (cyno), sequence (P04233 other isoform, or with tags, fused parts or gaps): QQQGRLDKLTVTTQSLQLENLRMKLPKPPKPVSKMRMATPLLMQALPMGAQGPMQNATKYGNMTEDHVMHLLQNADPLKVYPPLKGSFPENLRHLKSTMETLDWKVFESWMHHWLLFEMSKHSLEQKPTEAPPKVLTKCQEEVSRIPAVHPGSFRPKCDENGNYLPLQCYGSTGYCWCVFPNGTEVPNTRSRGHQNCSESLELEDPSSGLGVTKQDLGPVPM

[1] = CD74 ADC with the named linker-payload, 5 days
[2] = CD74 ADC with the named linker-payload, 5 days, read-out: EOL-1 IC50
[3] = CD74 ADC with the named linker-payload, 5 days, read-out: NOMO-1 IC50

Mcl-1 protein, sequence (Q07820 whole entry): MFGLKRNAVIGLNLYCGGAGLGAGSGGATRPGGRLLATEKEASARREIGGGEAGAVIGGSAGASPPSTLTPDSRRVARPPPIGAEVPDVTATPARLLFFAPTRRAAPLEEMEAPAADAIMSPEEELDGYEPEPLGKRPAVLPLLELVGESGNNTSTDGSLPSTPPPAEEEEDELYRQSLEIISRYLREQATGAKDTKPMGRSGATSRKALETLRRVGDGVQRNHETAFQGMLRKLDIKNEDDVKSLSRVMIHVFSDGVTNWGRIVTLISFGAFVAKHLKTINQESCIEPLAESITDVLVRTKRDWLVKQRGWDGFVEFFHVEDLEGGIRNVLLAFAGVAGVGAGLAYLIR

Row | IC50 (Mcl-1 protein) | Kd (soluble human CD74) | koff (soluble human CD74) | kon (soluble human CD74) | Kd (soluble cyno CD74 (cyno)) | koff (soluble cyno CD74 (cyno)) | kon (soluble cyno CD74 (cyno)) | Molecule | EOL-1 Amax (EOL-1; [1]) | IC50 (EOL-1; [2]) | IC50 (MONO-MAC-1) | MONO-MAC-1 Amax (MONO-MAC-1) | NOMO-1 Amax (NOMO-1; [1]) | IC50 (NOMO-1; [3]) | IC50 (EOL-1) | IC50 (NOMO-1)
1 | 1.18 nM |  |  |  |  |  |  | Cc1c(-c2c(-c3ccc(F)cc3)sc3ncnc(O[C@H](Cc4ccccc4OCc4ccnc(-c5ccccc5CO)n4)C(=O)O)c23)ccc(OCCN2CCN(C)CC2)c1Cl [C6, (2R)-2-{[(5Sa)-5-{3-chloro-2-methyl-4-[2-(4-methylpiperazin-1-yl)ethoxy]phenyl}-6-(4-fluorophenyl)thieno[2,3-d]pyrimidin-4-yl]oxy}-3-[2-({2-[2-(hydroxymethyl)phenyl]pyrimidin-4-yl}methoxy)phenyl]propanoic acid] |  |  |  |  |  |  |  | 
2 |  |  |  |  |  |  |  | COCCOCCOCCOCCOCCOCCOCCOCCOCCOCCOCCOCCOCCOCCOCCOCCn1cc(COCc2cc(NC(=O)[C@H](CCCNC(N)=O)NC(=O)[C@@H](NC(=O)CCOCCN3C(=O)C=CC3=O)C(C)C)ccc2C[N+]2(C)CCN(CCOc3ccc(-c4c(-c5ccc(F)cc5)sc5ncnc(O[C@H](Cc6ccccc6OCc6ccnc(-c7ccccc7OC)n6)C(=O)O)c45)c(C)c3Cl)CC2)nn1 [L34-P1] | 70.92 | 0.736 nM | 6.28 nM | 104.4 | 66.95 | 2.96 nM |  | 
3 |  |  |  |  |  |  |  | COCCOCCOCCOCCOCCOCCOCCOCCOCCOCCOCCOCCC(=O)N(C)Cc1cc(NC(=O)[C@H](CCCNC(N)=O)NC(=O)[C@@H](NC(=O)CCOCCN2C(=O)C=CC2=O)C(C)C)ccc1C[N+]1(C)CCN(CCOc2ccc(-c3c(-c4ccc(F)cc4)sc4ncnc(O[C@H](Cc5ccccc5OCc5ccnc(-c6ccccc6OC)n5)C(=O)O)c34)c(C)c2Cl)CC1 [L32-P1] | 125 | 0.16 nM | 6.72 nM | 97.57 | 62.58 | 1.5 nM |  | 
4 |  |  |  |  |  |  |  | COCCOCCOCCOCCOCCOCCOCCOCCOCCOCCOCCOCCOCCOCCOCCOCCC(=O)N(C)Cc1cc(NC(=O)[C@H](CCCNC(N)=O)NC(=O)[C@@H](NC(=O)CCOCCN2C(=O)C=CC2=O)C(C)C)ccc1C[N+]1(C)CCN(CCOc2ccc(-c3c(-c4ccc(F)cc4)sc4ncnc(O[C@H](Cc5ccccc5OCc5ccnc(-c6ccccc6OC)n5)C(=O)O)c34)c(C)c2Cl)CC1 [L31-P1] | 83.98 |  | 3.96 nM | 110.3 | 73.4 |  | 0.466 nM | 1.2 nM
5 |  |  |  |  |  |  |  | COc1ccccc1-c1nccc(COc2ccccc2C[C@@H](Oc2ncnc3sc(-c4ccc(F)cc4)c(-c4ccc(OCCN5CC[N+](C)(Cc6ccc(NC(=O)[C@H](CCCNC(N)=O)NC(=O)[C@@H](NC(=O)CCOCCN7C(=O)C=CC7=O)C(C)C)cc6CN(C)C(=O)OC[C@H](NC(=O)CS(=O)(=O)O)C(=O)O)CC5)c(Cl)c4C)c23)C(=O)O)n1 [L77-P1] | 102.6 |  | 0.987 nM | 108.2 | 48.53 |  | 0.383 nM | 3.19 nM
6 |  |  |  |  |  |  |  | COc1ccccc1-c1nccc(COc2ccccc2C[C@@H](Oc2ncnc3sc(-c4ccc(F)cc4)c(-c4ccc(OCCN5CC[N+](C)(Cc6ccc(NC(=O)[C@H](CCCNC(N)=O)NC(=O)[C@@H](NC(=O)CCOCCN7C(=O)C=CC7=O)C(C)C)cc6COCc6cn(CCOCCOCCOCCOCCOCCOCCOCCOCCOCCOCCOCCOCCC(=O)O)nn6)CC5)c(Cl)c4C)c23)C(=O)O)n1 [L33-P1] | 66.96 |  | 6.72 nM | 89.18 | 58.95 |  | 0.62 nM | 2.58 nM
7 | 5.9 nM |  |  |  |  |  |  | Cc1c(-c2c(-c3ccc(F)cc3)sc3ncnc(O[C@H](Cc4ccccc4OCc4ccnn4CC(F)(F)F)C(=O)O)c23)ccc(OCCN2CCN(C)CC2)c1Cl (atropisomer, axis not shown) [C12, (2R)-2-{[(5Sa)-5-{3-chloro-2-methyl-4-[2-(4-methylpiperazin-1-yl)ethoxy]phenyl}-6-(4-fluorophenyl)thieno[2,3-d]pyrimidin-4-yl]oxy}-3-(2-{[1-(2,2,2-trifluoroethyl)-1H-pyrazol-5-yl]methoxy}phenyl)propanoic Acid] |  |  |  |  |  |  |  | 
8 |  |  |  |  |  |  |  | COCCOCCOCCOCCOCCOCCOCCOCCOCCOCCOCCOCCOCCOCCOCCOCCOCCOCCOCCOCCOCCOCCOCCOCCC(=O)N(C)Cc1cc(NC(=O)[C@H](CCCNC(N)=O)NC(=O)[C@@H](NC(=O)CCOCCN2C(=O)C=CC2=O)C(C)C)ccc1C[N+]1(C)CCN(CCOc2ccc(-c3c(-c4ccc(F)cc4)sc4ncnc(O[C@H](Cc5ccccc5OCc5ccnc(-c6ccccc6OC)n5)C(=O)O)c34)c(C)c2Cl)CC1 [L30-P1] | 197.6 |  | 5.45 nM | 86.78 | 78.95 |  | 0.251 nM | 1.62 nM
9 |  |  |  |  |  |  |  | COCCOCCOCCOCCOCCOCCOCCOCCOCCOCCOCCOCCOCCOCCOCCOCCOCCOCCOCCOCCOCCOCCOCCOCCn1cc(COCc2cc(NC(=O)[C@H](CCCNC(N)=O)NC(=O)[C@@H](NC(=O)CCOCCN3C(=O)C=CC3=O)C(C)C)ccc2C[N+]2(C)CCN(CCOc3ccc(-c4c(-c5ccc(F)cc5)sc5ncnc(O[C@H](Cc6ccccc6OCc6ccnc(-c7ccccc7OC)n6)C(=O)O)c45)c(C)c3Cl)CC2)nn1 [L5-P1] | 75.06 |  | 7.95 nM | 84.9 | 55.58 |  | 1.02 nM | 2.22 nM
10 |  | 4.9 nM | 0.00051 s⁻¹ | 100000 M⁻¹ s⁻¹ | 16 nM | 0.00088 s⁻¹ | 56000 M⁻¹ s⁻¹ | milatuzumab (antibody, V domains shown, also called hLL1; WT IgG) VH: QVQLQQSGSELKKPGASVKVSCKASGYTFTNYGVNWIKQAPGQGLQWMGWINPNTGEPTFDDDFKGRFAFSLDTSVSTAYLQISSLKADDTAVYFCSRSRGKNEAWFAYWGQGTLVTVSS VL: DIQLTQSPLSLPVTLGQPASISCRSSQSLVHRNGNTYLHWFQQRPGQSPRLLIYTVSNRFSGVPDRFSGSGSGTDFTLKISRVEAEDVGVYFCSQSSHVPPTFGAGTRLEIK |  |  |  |  |  |  |  | 
11 |  | 0.72 nM | 0.00017 s⁻¹ | 230000 M⁻¹ s⁻¹ | 5.1 nM | 0.00058 s⁻¹ | 110000 M⁻¹ s⁻¹ | Mil_HCx hzVk1b (antibody, V domains shown, Tested as IgG; also called hLL1 heavy chain with hzLL1-Vk1b light chain) VH: QVQLQQSGSELKKPGASVKVSCKASGYTFTNYGVNWIKQAPGQGLQWMGWINPNTGEPTFDDDFKGRFAFSLDTSVSTAYLQISSLKADDTAVYFCSRSRGKNEAWFAYWGQGTLVTVSS VL: DVVMTQSPLSLPVTLGQPASISCRSSQSLVHRNGNTYLHWYQQRPGQSPRLLIYTVSNRFSGVPDRFSGSGSGTDFTLKISRVEAEDVGVYFCSQSSHVPPTFGQGTKLEIK |  |  |  |  |  |  |  | 
12 |  | 0.85 nM | 0.00018 s⁻¹ | 210000 M⁻¹ s⁻¹ | 5.7 nM | 0.00058 s⁻¹ | 100000 M⁻¹ s⁻¹ | Mil_HCx hzVk1a (antibody, V domains shown, Tested as IgG; also called hLL1 heavy chain with hzLL1-Vk1a light chain) VH: QVQLQQSGSELKKPGASVKVSCKASGYTFTNYGVNWIKQAPGQGLQWMGWINPNTGEPTFDDDFKGRFAFSLDTSVSTAYLQISSLKADDTAVYFCSRSRGKNEAWFAYWGQGTLVTVSS VL: DIVMTQTPLSLPVTPGEPASISCRSSQSLVHRNGNTYLHWYLQKPGQSPQLLIYTVSNRFSGVPDRFSGSGSGTDFTLKISRVEAEDVGVYFCSQSSHVPPTFGQGTKLEIK |  |  |  |  |  |  |  | 
13 |  | 3.4 nM | 0.00033 s⁻¹ | 96000 M⁻¹ s⁻¹ | 26 nM | 0.00077 s⁻¹ | 30000 M⁻¹ s⁻¹ | Hcmil x LCmil_NQ (antibody, V domains shown, Tested as IgG; also called hLL1 heavy chain with hLL1 (NQ) light chain) VH: QVQLQQSGSELKKPGASVKVSCKASGYTFTNYGVNWIKQAPGQGLQWMGWINPNTGEPTFDDDFKGRFAFSLDTSVSTAYLQISSLKADDTAVYFCSRSRGKNEAWFAYWGQGTLVTVSS VL: DIQLTQSPLSLPVTLGQPASISCRSSQSLVHRNQNTYLHWFQQRPGQSPRLLIYTVSNRFSGVPDRFSGSGSGTDFTLKISRVEAEDVGVYFCSQSSHVPPTFGAGTRLEIK |  |  |  |  |  |  |  | 
14 |  | 0.76 nM | 0.00016 s⁻¹ | 220000 M⁻¹ s⁻¹ | 5.3 nM | 0.00058 s⁻¹ | 110000 M⁻¹ s⁻¹ | VHmil x VK1bNQ (antibody, V domains shown, Tested as IgG; also called VHmil × VK1bNQ; hLL1 heavy chain with hzLL1-Vk1b (NQ) light chain) VH: QVQLQQSGSELKKPGASVKVSCKASGYTFTNYGVNWIKQAPGQGLQWMGWINPNTGEPTFDDDFKGRFAFSLDTSVSTAYLQISSLKADDTAVYFCSRSRGKNEAWFAYWGQGTLVTVSS VL: DVVMTQSPLSLPVTLGQPASISCRSSQSLVHRNQNTYLHWYQQRPGQSPRLLIYTVSNRFSGVPDRFSGSGSGTDFTLKISRVEAEDVGVYFCSQSSHVPPTFGQGTKLEIK |  |  |  |  |  |  |  | 
15 |  | 0.91 nM | 0.00018 s⁻¹ | 200000 M⁻¹ s⁻¹ | 5.9 nM | 0.00062 s⁻¹ | 100000 M⁻¹ s⁻¹ | VHmil x VK1aNQ (antibody, V domains shown, Tested as IgG; also called VHmil × VK1aNQ; hLL1 heavy chain with hzLL1-Vk1a (NQ) light chain) VH: QVQLQQSGSELKKPGASVKVSCKASGYTFTNYGVNWIKQAPGQGLQWMGWINPNTGEPTFDDDFKGRFAFSLDTSVSTAYLQISSLKADDTAVYFCSRSRGKNEAWFAYWGQGTLVTVSS VL: DIVMTQTPLSLPVTPGEPASISCRSSQSLVHRNQNTYLHWYLQKPGQSPQLLIYTVSNRFSGVPDRFSGSGSGTDFTLKISRVEAEDVGVYFCSQSSHVPPTFGQGTKLEIK |  |  |  |  |  |  |  | 
